Measurements as given in ChEMBL document CHEMBL5038654, “Discovery of Spiro-azaindoline Inhibitors of Hematopoietic Progenitor Kinase 1 (HPK1)” (ACS Med Chem Lett, 2022).

How the values were obtained:
Cytochrome P450 3A4 = Cytochrome P450 3A4 (Homo sapiens, UniProt P08684); test: Inhibition of CYP3A4 in human liver microsomes using testosterone as substrate by TDI- high-throughput based mass spectrometry method; assay type: ADME
[1] = target: T1, Mitogen-activated protein kinase kinase kinase kinase 1 (Homo sapiens, UniProt Q92918); test: Inhibition of HPK1 (unknown origin) followed by anti-GST antibody incubated for 60 mins measured after 1 hr by TR-FRET based LanthaScreen Eu-Kinase binding assay
[2] = Apparent permeability across apical to basolateral side in dog MDCK1 cells at 10 uM by LC-MS/MS analysis; assay type: ADME, cell-based, Canis lupus familiaris; settings: for Papp A→B at 10 µM: MDCK
[3] = target: T1, Mitogen-activated protein kinase kinase kinase kinase 1; test: Inhibition of HPK1 in human Jurkat E6.1 cells assessed as SLP76 phosphorylation incubated for 30 mins followed by anti-CD3, biotinylated anti-SLP76 and TMB substrate addition measured after 3 hrs by ELISA assay; assay type: cell-based
[4] = Metabolic stability in human liver microsomes assessed as intrinsic clearance followed by substrate addition incubated for 30 mins by LC-MS/MS analysis; assay type: ADME, Microsome; settings: read-out: CLH
[5] = Metabolic stability in rat liver microsomes assessed as intrinsic clearance followed by substrate addition incubated for 30 mins by LC-MS/MS analysis; assay type: ADME, Microsome; settings: read-out: CLH
[6] = Metabolic stability in mouse liver microsomes assessed as intrinsic clearance followed by substrate addition incubated for 30 mins by LC-MS/MS analysis; assay type: ADME, Microsome; settings: read-out: CLH
[7] = Volume of distribution in female C57BL/6 mouse at 1 mg/kg, iv administered as bolus dose measured upto 24 hrs by LC-MS/MS analysis; assay type: ADME, organism-based; settings: in vivo
[8] = Metabolic stability in human hepatocytes assessed as hepatic clearance at 1 uM measured upto 3 hrs by LC-MS/MS analysis; assay type: ADME, cell-based, Hepatocyte
[9] = Blood clearance in female C57BL/6 mouse at 1 mg/kg, iv administered as bolus dose measured upto 24 hrs by LC-MS/MS analysis; assay type: ADME, organism-based; settings: whole blood
T-cell line = test: Effects of compound on IL-2 production in human pan T-cells followed by anti-CD3/CD28-stimulation assessed as increase in IL-2 level incubated for 30 mins by ELISA method; assay type: functional, cell-based; settings: 0.5 h
[10] = Oral bioavailability in female C57BL/6 mouse at 25 mg/kg measured upto 24 hrs by LC-MS/MS analysis; assay type: ADME, organism-based; settings: in vivo
[11] = Metabolic stability in rat hepatocytes assessed as hepatic clearance; assay type: ADME, cell-based, Hepatocyte; set-up: dose or concentration left out as unconfirmed
[12] = Metabolic stability in mouse hepatocytes assessed as hepatic clearance; assay type: ADME, cell-based, Hepatocyte; set-up: dose or concentration left out as unconfirmed
[13] = target: T1, Mitogen-activated protein kinase kinase kinase kinase 1; test: Inhibition of HPK1 (unknown origin) preincubated for 30 mins with compound followed by Biotin-SLP-76 substrate in presence of ATP incubated for 60 mins measured after 1 hr by TR-FRET based HTRF enzymatic assay

T1 sequence (Q92918 whole entry): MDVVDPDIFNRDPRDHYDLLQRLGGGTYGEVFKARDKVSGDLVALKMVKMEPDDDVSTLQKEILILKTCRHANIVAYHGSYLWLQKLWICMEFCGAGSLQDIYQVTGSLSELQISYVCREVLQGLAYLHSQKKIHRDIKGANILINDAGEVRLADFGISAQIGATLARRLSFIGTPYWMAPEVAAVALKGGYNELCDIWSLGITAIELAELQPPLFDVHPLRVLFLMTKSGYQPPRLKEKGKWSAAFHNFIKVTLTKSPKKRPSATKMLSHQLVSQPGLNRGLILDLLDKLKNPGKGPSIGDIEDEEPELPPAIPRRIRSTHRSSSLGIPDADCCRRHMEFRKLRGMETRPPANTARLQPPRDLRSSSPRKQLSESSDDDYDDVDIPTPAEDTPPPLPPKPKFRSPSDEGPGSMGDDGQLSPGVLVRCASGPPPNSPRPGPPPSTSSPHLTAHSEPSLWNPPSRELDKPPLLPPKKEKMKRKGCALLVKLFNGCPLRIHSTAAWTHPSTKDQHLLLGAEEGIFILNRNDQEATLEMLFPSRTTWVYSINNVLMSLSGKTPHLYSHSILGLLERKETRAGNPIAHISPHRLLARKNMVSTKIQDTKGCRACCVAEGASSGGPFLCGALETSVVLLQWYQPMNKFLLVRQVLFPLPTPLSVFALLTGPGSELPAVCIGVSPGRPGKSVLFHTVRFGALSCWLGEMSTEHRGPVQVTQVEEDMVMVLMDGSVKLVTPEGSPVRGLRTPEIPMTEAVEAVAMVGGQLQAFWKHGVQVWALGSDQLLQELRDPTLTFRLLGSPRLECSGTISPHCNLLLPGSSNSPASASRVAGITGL
Chain of Cytochrome P450 3A4 (P08684 whole entry): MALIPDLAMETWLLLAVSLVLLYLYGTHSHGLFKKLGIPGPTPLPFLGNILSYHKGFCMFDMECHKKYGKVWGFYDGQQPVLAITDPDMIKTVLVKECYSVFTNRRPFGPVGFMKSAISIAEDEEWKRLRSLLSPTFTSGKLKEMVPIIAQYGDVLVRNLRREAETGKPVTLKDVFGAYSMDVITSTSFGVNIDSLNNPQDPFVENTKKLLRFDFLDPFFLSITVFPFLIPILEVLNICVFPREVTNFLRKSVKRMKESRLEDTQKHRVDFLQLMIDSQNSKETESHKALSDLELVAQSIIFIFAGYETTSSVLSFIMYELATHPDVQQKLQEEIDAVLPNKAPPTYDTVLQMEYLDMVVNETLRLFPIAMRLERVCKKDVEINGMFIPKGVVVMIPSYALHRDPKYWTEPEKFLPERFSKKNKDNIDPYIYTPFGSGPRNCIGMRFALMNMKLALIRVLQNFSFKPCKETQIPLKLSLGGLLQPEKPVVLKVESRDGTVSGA

With `CN(C)C(=O)c1cc(-c2cnc3c(c2)C2(CC2)CN3)ccc1N` the IC50 (Cytochrome P450 3A4) was > 10000 nM and the Ki [1] was 33 nM.

In the case of `CCc1c[nH]c2ncc(-c3ccc(N)c(C(=O)N(C)C)c3)c(CC)c12`, the Ki [1] is reported as 2.8 nM.

In the case of `CN(C)C(=O)c1c(N)ccc(-c2cnc3c(c2Cl)[C@@]2(CC[C@@](C)(C(N)=O)C2)CN3)c1F`, the Papp A→B at 10 µM [2] is reported as 0.4 ×10⁻⁶ cm/s, the IC50 [3] is reported as > 25000 nM and the Ki [1] is reported as 85 nM.

Compound `CN(C)C(=O)c1cc(-c2cnc3c(c2)C2(CCCC2)CN3)ccc1N` has an IC50 (Cytochrome P450 3A4) of 9800 nM and a Ki [1] of 28 nM.

Compound `CNC(=O)[C@H]1CC[C@@]2(CNc3ncc(-c4ccc(N)c(C(=O)N(C)C)c4F)c(Cl)c32)C1` (racemic) has a Papp A→B at 10 µM [2] of 0.8 ×10⁻⁶ cm/s, an IC50 [3] of 7400 nM and a Ki [1] of 63 nM.

Compound `CN(C)C(=O)c1c(N)ccc(-c2cnc3c(c2Cl)[C@]2(CC[C@](C)(C#N)CC2)CN3)c1F` has a Papp A→B at 10 µM [2] of 26 ×10⁻⁶ cm/s and an IC50 [3] of 7900 nM.

Compound `CN(C)C(=O)c1c(N)ccc(-c2cnc3c(c2Cl)[C@]2(CC[C@](C)(O)CC2)CN3)c1F` has a Papp A→B at 10 µM [2] of 5.7 ×10⁻⁶ cm/s, an IC50 [3] of 3000 nM and a Ki [1] of 8.2 nM.

Compound `CN(C)C(=O)c1c(N)ccc(-c2cnc3c(c2Cl)C2(CCCC2)CN3)c1F` has a Papp A→B at 10 µM [2] of 23 ×10⁻⁶ cm/s, an IC50 (Cytochrome P450 3A4) of 800 nM and an IC50 [3] of 1500 nM. For the same compound, the Ki [1] was 2.5 nM.

Compound `CCc1c[nH]c2ncc(-c3cccc(C(=O)N(C)C)c3)cc12` has a predicted hepatic clearance [4] of 18 mL/min/kg, an IC50 (Cytochrome P450 3A4) of 1700 nM and a predicted hepatic clearance [5] of 43 mL/min/kg. The predicted hepatic clearance [6] was 84 mL/min/kg and the Ki [1] was 5.2 nM.

In the case of `CN(C)C(=O)c1c(N)ccc(-c2cnc3c(c2Cl)C2(CCC2)CN3)c1F`, the IC50 (Cytochrome P450 3A4) is reported as > 10000 nM.

Compound `CCc1c[nH]c2ncc(-c3ccc(N)c(C(=O)N(C)C)c3)cc12` has a predicted hepatic clearance [4] of 12 mL/min/kg, an IC50 (Cytochrome P450 3A4) of 500 nM and a predicted hepatic clearance [5] of 25 mL/min/kg. The predicted hepatic clearance [6] was 80 mL/min/kg and the Ki [1] was 2.1 nM.

In the case of `CN(C)C(=O)c1c(N)ccc(-c2cnc3c(c2Cl)[C@]2(CC[C@](C)(C(N)=O)C2)CN3)c1F`, the Vd [7] is reported as 1.9 L/kg, the Papp ([2]; mdck1, 10 µM) is reported as 0.3 10^-6 cm/s and the CLhep predicted at 1 µM [8] is reported as 9.5 mL/min/kg. For the same compound, the clearance [9] was 57 mL/min/kg, the EC50 (T-cell line) was 1560 nM and the bioavailability [10] was 13%. It also gave a CLhep predicted [11] of 18 mL/min/kg, an IC50 [3] of 440 nM and a CLhep predicted [12] of 33 mL/min/kg. The Ki [1] was 0.8 nM.

For `CN(C)C(=O)c1c(N)ccc(-c2cnc3c(c2Cl)[C@]2(CC[C@](C)(C#N)C2)CN3)c1F` (racemic), the Papp A→B at 10 µM [2] was 21 ×10⁻⁶ cm/s, the IC50 [3] was 1700 nM and the Ki [1] was 11 nM.

Compound `CN(C)C(=O)c1c(N)ccc(-c2cnc3c(c2Cl)[C@]2(CC[C@@]4(CCCNC4=O)C2)CN3)c1F` has a Papp A→B at 10 µM [2] of 7.1 ×10⁻⁶ cm/s, a Ki [13] of 6.5 nM and an IC50 [3] of 1700 nM.

With `CN(C)C(=O)c1c(N)ccc(-c2cnc3c(c2Cl)[C@]2(CC[C@H](c4ncn[nH]4)C2)CN3)c1F` (racemic) the Papp A→B at 10 µM [2] was 0.4 ×10⁻⁶ cm/s, the IC50 [3] was 15000 nM and the Ki [1] was 14 nM.

Compound `CCc1c[nH]c2ncc(-c3ccc(N)c(C(=O)N(C)C)c3)c(Cl)c12` has a Ki [1] of 2.6 nM.

For `CN(C)C(=O)c1c(N)ccc(-c2cnc3c(c2Cl)[C@]2(CC[C@](C)(O)C2)CN3)c1F` (racemic), the Papp A→B at 10 µM [2] was 4.1 ×10⁻⁶ cm/s, the IC50 [3] was 2000 nM and the Ki [1] was 8.1 nM.

`CN(C)C(=O)c1c(N)ccc(-c2cnc3c(c2Cl)[C@]2(CC[C@](C)(C(N)=O)C2)CN3)c1F` (racemic) showed a Papp A→B at 10 µM [2] of 0.3 ×10⁻⁶ cm/s, an IC50 [3] of 1100 nM and a Ki [1] of 2 nM.

With `CN(C)C(=O)c1cc(-c2cnc3c(c2)C2(CCC2)CN3)ccc1N` the IC50 (Cytochrome P450 3A4) was > 10000 nM and the Ki [1] was 66 nM.

Work on `CCc1c(Cl)[nH]c2ncc(-c3ccc(N)c(C(=O)N(C)C)c3)cc12` yielded an IC50 (Cytochrome P450 3A4) of 200 nM and a Ki [1] of 2.7 nM.

With `CN(C)C(=O)c1cc(-c2cnc3[nH]ccc3c2)ccc1N` the Ki [1] was 1.5 nM.

`CCc1c[nH]c2ncc(-c3ccc(N)c(C(=O)N(C)C)c3F)cc12` gave a predicted hepatic clearance [4] of 16 mL/min/kg, an IC50 (Cytochrome P450 3A4) of 700 nM and a predicted hepatic clearance [5] of 37 mL/min/kg. The predicted hepatic clearance [6] was 80 mL/min/kg and the Ki [1] was 0.47 nM.

Compound `CCc1c[nH]c2ncc(-c3ccc(N)c(C(=O)N(C)C)c3)c(C)c12` has a Ki [1] of 2.4 nM.

Work on `COc1ccccc1-c1c[nH]c2ncc(-c3ccc(N)c(C(=O)N(C)C)c3)cc12` yielded a Ki [1] of 0.4 nM.

Work on `CN(C)C(=O)c1c(N)ccc(-c2cnc3c(c2Cl)[C@]2(CC[C@@]4(CCCCNC4=O)C2)CN3)c1F` yielded a Papp A→B at 10 µM [2] of 6.5 ×10⁻⁶ cm/s, a Ki [13] of 7.2 nM and an IC50 [3] of 1200 nM.

`CCc1c[nH]c2ncc(-c3ccc(N)c(C(=O)N(C)C)n3)cc12` gave a predicted hepatic clearance [4] of 17 mL/min/kg, an IC50 (Cytochrome P450 3A4) of 1600 nM and a predicted hepatic clearance [5] of 28 mL/min/kg. The predicted hepatic clearance [6] was 81 mL/min/kg and the Ki [1] was 3.3 nM.

`CN(C)C(=O)c1c(N)ccc(-c2cnc3c(c2Cl)[C@]2(CC[C@H](O)C2)CN3)c1F` (racemic) showed a Papp A→B at 10 µM [2] of 5 ×10⁻⁶ cm/s and an IC50 [3] of 5000 nM.

For `Cc1c(-c2ccc(N)c(C(=O)N(C)C)c2F)cnc2c1C1(CC1)CN2`, the IC50 (Cytochrome P450 3A4) was 6500 nM and the Ki [1] was 43 nM.

With `CN(C)C(=O)c1c(N)ccc(-c2cnc3c(c2Cl)[C@]2(CC[C@H](C(N)=O)C2)CN3)c1F` (racemic) the Papp A→B at 10 µM [2] was 0.2 ×10⁻⁶ cm/s, the IC50 [3] was 14000 nM and the Ki [1] was 1.8 nM.
